According to the supplement of paper PMC10307832:

compound: CCN1CCN(c2ccc(Nc3cc(N(C)C(=O)Nc4c(Cl)c(OC)cc(OC)c4Cl)ncn3)cc2)CC1 [BGJ398] + CC1(C)CCC(c2ccc(Cl)cc2)=C(CN2CCN(c3ccc(C(=O)NS(=O)(=O)c4ccc(N[C@H](CCN5CCOCC5)CSc5ccccc5)c(S(=O)(=O)C(F)(F)F)c4)cc3)CC2)C1 [Navitoclax] (partner 0.5 µM); experiment: relative viability (nuclei count vs DMSO), 5 days (fraction); higher = more cells survive; settings: first compound 0.01 µM
Outline: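 Lung cancer cell lines in 1536-well plates were dosed by pin tool the day after seeding, either with one drug alone or with a fixed anchor-drug dose plus five library-drug doses (not always all listed) in √10 steps. After 5 days, cells were fixed and their nuclei stained in one step (final 0.05% Triton X-100, 1% formaldehyde, 1 ug/ml Hoechst), then counted on 4× images. Relative viability is the nuclei count in treated wells divided by that in vehicle wells. Values are medians of duplicate plates.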

Cell Line	relative viability
COR-L23	1.05
COR-L 105	0.707
LOU-NH91	0.685
ChaGo-K-1	1.06
NCI-H2170	0.505
NCI-H2405	0.806
HOP-62	0.915
LU99A	0.769
BEN	0.0852
HARA	1.11
HCC-78	0.734
NCI-H322M	1.23
LCLC-97TM1	0.315
NCI-H2009	1.21
A-427	0.978

same assay, conditions: first compound 0.03162 µM

Cell Line	relative viability
COR-L23	0.978
COR-L 105	0.805
LOU-NH91	0.402
ChaGo-K-1	0.913
NCI-H2170	0.572
NCI-H2405	0.926
HOP-62	1
LU99A	0.755
BEN	0.15
HARA	1.14
HCC-78	0.751
NCI-H322M	1.26
LCLC-97TM1	0.271
NCI-H2009	1.19
A-427	0.92

same assay, conditions: first compound 0.1 µM

Cell Line	relative viability
COR-L23	0.986
COR-L 105	0.815
LOU-NH91	0.668
ChaGo-K-1	0.76
NCI-H2170	0.586
NCI-H2405	0.969
HOP-62	1.1
LU99A	0.696
BEN	0.0576
HARA	1.19
HCC-78	0.935
NCI-H322M	1.05
LCLC-97TM1	0.41
NCI-H2009	1.18
A-427	0.914

same assay, conditions: first compound 0.3162 µM

Cell Line	relative viability
COR-L23	0.966
COR-L 105	0.827
LOU-NH91	0.427
ChaGo-K-1	0.69
NCI-H2170	0.671
NCI-H2405	0.941
HOP-62	1.02
LU99A	0.724
BEN	0.0618
HARA	1.13
HCC-78	0.879
NCI-H322M	1.2
LCLC-97TM1	0.683
NCI-H2009	1.23
A-427	0.67

same assay, conditions: first compound 1 µM

Cell Line	relative viability
COR-L23	1.08
COR-L 105	0.598
LOU-NH91	0.701
ChaGo-K-1	0.444
NCI-H2170	0.765
NCI-H2405	0.872
HOP-62	1.01
LU99A	0.512
BEN	0.0501
HARA	1.05
HCC-78	0.823
NCI-H322M	1.31
LCLC-97TM1	0.646
NCI-H2009	1.17
A-427	0.624
